In brackets after ≈: the same amount, converted by molar mass. Where two headings read alike, the source gives them in different places.
How the values were obtained:
Assay type in all cases: cell-based
[1] = tested on: Methicillin-resistant S. epidermidis ATCC 51625; assay: MIC, broth microdilution; conditions: Staphylococcus epidermidis, ATCC 51625 / MRSE, read-out: Minimum inhibitory concentration MRSE^e
Outline: (§1)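 Broth microdilution in Mueller–Hinton broth: compounds two-fold serially diluted from a 2560 μg/mL stock (1% DMSO), inoculum 5×10^5 CFU/mL final from log-phase cultures, incubation 37 °C for 24 h. MIC taken as the lowest concentration inhibiting growth.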

S. enterica ATCC14028 = assay: MIC, broth microdilution; conditions: Salmonella enterica
Outline: as §1

[2] = tested on: C. pneumoniae AR39, ATCC53592; assay: Anti-mycoplasma MIC; conditions: Chlamydia pneumoniae
Description: (§2) The antimycoplasma activity was quantified using the […]. Retapamulin was used as a positive control to test the minimum inhibitory concentration of 3H-imidazo[4,5-C]pyridine pleuromutilin onium salt derivatives.
(§3) (1) Preparation of KM2 medium: Weigh 38.9 g of KM2 medium, add it to 800 mL of distilled water, boil to dissolve, sterilize under high pressure at 115° C. for 20 min, and set aside.
(§4) (2) Preparation of bacterial stock solution: Take 0.5 mL of Mhp-J^a, Mhp-LH^b, Mhr-BTS-7^c, MG-R^d, MS-WVU1853^e, MP-M129^f, CP-AR-39^g, CP-CWL-029^h, CP-TW-183^i, MH-PG-21^j, MG-G37^k cultured to the logarithmic phase and transfer it to 4.5 mL of KM2 liquid culture medium. When the culture medium turns yellow, divide each bacterium into 0.5 mL per tube and store it at −70° C. as bacterial stock solution.
(§5) (3) Determination of bacterial titer (color change unit, CCU): Take out the bacterial stock solution stored at −70° C., melt and balance to room temperature, add 0.18 mL KM2 medium to each well of the middle 4 rows of the 96-well plate (i.e. 4 parallels), take 0.02 mL and add it to the first column, dilute 10 times to 10^−11, and set up a negative control containing only KM2 medium (12th column). After sealing, put it in a 37° C. incubator and observe the results every day. The highest dilution at which the color of the medium changes is the CCU/mL of the strain.
(§6) Take an appropriate amount of seed bacterial solution and dilute it to 10^4 CCU/mL in turn according to its titer. Add drugs of each dilution in a 96-well plate in turn, and then add an equal amount of diluted bacterial solution. Set 200 μL of diluted mycoplasma bacterial solution as a positive control, 200 μL of KM2 liquid culture medium as a negative control, and set a solvent control group (10 μL of drug solvent+190 μL of mycoplasma bacterial solution). Each experiment is set up in 3 parallels. After all culture plates are sealed, they are cultured at 37° C., observed daily, and the final MIC value is recorded.

[3] = tested on: C. pneumoniae TW183, VR-2282; assay: Anti-mycoplasma MIC; conditions: Chlamydia pneumoniae, read-out: Antimycoplasma activity (MIC) CP-TW-183^i
Description: as §2, §3, §4, §5, §6

[4] = tested on: M. galliscepticum, NCTC10115; assay: Anti-mycoplasma MIC; conditions: read-out: Antimycoplasma activity (MIC) MG-R^d
Description: as §2, §3, §4, §5, §6

[5] = tested on: M. genitalium G37, ATCC33530; assay: Anti-mycoplasma MIC; conditions: Mycoplasmoides genitalium
Description: as §2, §3, §4, §5, §6

[6] = tested on: M. hominis PG-21, ATCC23114; assay: Anti-mycoplasma MIC; conditions: Metamycoplasma hominis
Description: as §2, §3, §4, §5, §6

[7] = tested on: M. hyopneumoniae J, NCTC10110; assay: Anti-mycoplasma MIC; conditions: Mesomycoplasma hyopneumoniae
Description: as §2, §3, §4, §5, §6

[8] = tested on: M. hyorhinis BTS-7, NCTC10130; assay: Anti-mycoplasma MIC; conditions: Mesomycoplasma hyorhinis
Description: as §2, §3, §4, §5, §6

[9] = tested on: M. pneumoniae M129, ATCC29342; assay: Anti-mycoplasma MIC; conditions: Mycoplasmoides pneumoniae
Description: as §2, §3, §4, §5, §6

[10] = tested on: M. synoviae WVU1853, NCTC10124; assay: Anti-mycoplasma MIC; conditions: Mycoplasmopsis synoviae
Description: as §2, §3, §4, §5, §6

## C=C[C@]1(C)C[C@@H](OC(=O)CSc2nc3cc[n+](Cc4ccc(C)cc4)cc3[nH]2)[C@]2(C)[C@H](C)CC[C@]3(CCC(=O)[C@H]32)[C@@H](C)[C@@H]1O [Compound i, 5-(4-methylbenzyl)-2-((2-(((3aR,4R,5R,7S,8S,9R,9aS,12R)-8-hydroxy-4,7,9,12-tetramethyl-3-oxo-7-vinyldecahydro-4,9a-propancyclopenta[8]cyclo-5-yl)oxy)-2-oxoethyl)thio)-3H-imidazo[4,5-C]pyridine-5-ium]
[1]; Methicillin-resistant S. epidermidis ATCC 51625
  MIC: 0.0625 µg/mL
S. enterica ATCC14028; S. enterica ATCC14028, read-out: Minimum inhibitory concentration S.e.^g
  MIC: 0.25 µg/mL
[2]; ATCC53592, C. pneumoniae AR39, read-out: Antimycoplasma activity (MIC) CP-AR-39^g
  MIC: 0.002 µg/mL
[3]; C. pneumoniae TW183
  MIC: 0.01 µg/mL
[4]; M. galliscepticum
  MIC: 0.04 µg/mL
[5]; ATCC33530, M. genitalium G37, read-out: Antimycoplasma activity (MIC) MG-G37^k
  MIC: 0.03 µg/mL
[6]; ATCC23114, M. hominis PG-21, read-out: Antimycoplasma activity (MIC) MH-PG-21^j
  MIC: 0.015 µg/mL
[7]; NCTC10110, M. hyopneumoniae J, read-out: Antimycoplasma activity (MIC) Mhp-J^a
  MIC: 0.02 µg/mL
[8]; NCTC10130, M. hyorhinis BTS-7, read-out: Antimycoplasma activity (MIC) Mhr-BTS-7^c
  MIC: 0.03 µg/mL
[9]; ATCC29342, M. pneumoniae M129, read-out: Antimycoplasma activity (MIC) MP-M129^f
  MIC: 0.008 µg/mL
[10]; NCTC10124, M. synoviae WVU1853, read-out: Antimycoplasma activity (MIC) MS-WVU1853^e
  MIC: 0.015 µg/mL

## C=C[C@]1(C)C[C@@H](OC(=O)CS[C@@H]2C[C@H]3CC[C@@H](C2)N3C)[C@]2(C)[C@H](C)CC[C@]3(CCC(=O)[C@H]32)[C@@H](C)[C@@H]1O [Retapamulin, reference compound]
[1]
  MIC: 32 µg/mL (≈ 61.8 µM)
S. enterica ATCC14028; ATCC14028, read-out: Minimum inhibitory concentration S.e.^g
  MIC: 128 µg/mL (≈ 247 µM)
[2]; ATCC53592, read-out: Antimycoplasma activity (MIC) CP-AR-39^g
  MIC: 0.125 µg/mL (≈ 0.241 µM)
[3]
  MIC: 0.03 µg/mL (≈ 0.0579 µM)
[4]
  MIC: 0.125 µg/mL (≈ 0.241 µM)
[5]; ATCC33530, read-out: Antimycoplasma activity (MIC) MG-G37^k
  MIC: 0.03 µg/mL (≈ 0.0579 µM)
[6]; ATCC23114, read-out: Antimycoplasma activity (MIC) MH-PG-21^j
  MIC: 0.25 µg/mL (≈ 0.483 µM)
[7]; NCTC10110, read-out: Antimycoplasma activity (MIC) Mhp-J^a
  MIC: 0.03 µg/mL (≈ 0.0579 µM)
[8]; NCTC10130, read-out: Antimycoplasma activity (MIC) Mhr-BTS-7^c
  MIC: 0.03 µg/mL (≈ 0.0579 µM)
[9]; ATCC29342, read-out: Antimycoplasma activity (MIC) MP-M129^f
  MIC: 0.015 µg/mL (≈ 0.029 µM)
[10]; NCTC10124, read-out: Antimycoplasma activity (MIC) MS-WVU1853^e
  MIC: 2 µg/mL (≈ 3.86 µM)
